{"source": "paper PMC7255801", "about": "“Disease-associated mutations in the human TRPM3 render the channel overactive via two distinct mechanisms” (eLife, 2020)", "format_in_all_cases": "cell-based", "key": {"[1]": {"target": "T1, human M2 muscarinic receptors co-expressed with wild-type hTRPM3_1325 (Homo sapiens, UniProt P08172)", "T1 construct": "expressed in transfected cells; host or cells: Xenopus laevis oocytes (cRNA injection)", "T1 sequence (P08172 1-466)": "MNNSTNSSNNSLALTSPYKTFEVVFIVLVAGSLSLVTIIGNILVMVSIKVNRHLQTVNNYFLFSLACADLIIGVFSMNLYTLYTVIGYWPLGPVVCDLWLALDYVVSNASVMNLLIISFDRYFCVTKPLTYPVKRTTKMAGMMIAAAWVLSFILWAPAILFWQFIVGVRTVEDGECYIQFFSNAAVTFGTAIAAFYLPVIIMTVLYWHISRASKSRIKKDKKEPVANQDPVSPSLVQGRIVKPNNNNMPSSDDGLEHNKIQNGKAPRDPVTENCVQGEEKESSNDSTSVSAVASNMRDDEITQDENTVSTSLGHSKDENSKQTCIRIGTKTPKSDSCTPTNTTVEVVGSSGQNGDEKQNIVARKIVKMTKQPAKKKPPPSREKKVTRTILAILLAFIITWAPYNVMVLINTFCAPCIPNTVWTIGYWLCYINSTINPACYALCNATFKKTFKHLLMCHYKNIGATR", "test": "M2 muscarinic receptor inhibition of TRPM3 currents, oocytes, wild type channel", "details": "read-out: Inhibition of TRPM3 currents induced by 50 μM PregS", "protocol": "(§1) Xenopus laevis oocytes were prepared as described earlier ([Badheka et al., 2015]). All animal procedures were approved by the Institutional Animal Care and Use Committee at Rutgers New Jersey Medical School. In brief, frogs were anesthetized in 0.25% ethyl 3-aminobenzoate methanesulfonate solution (MS222; Sigma-Aldrich); bags of ovaries were removed surgically from the anesthetized frogs. Individual oocytes were obtained by overnight digestion at 16°C in 0.2–0.3 mg/ml type 1A collagenase (Sigma-Aldrich), dissolved in a solution containing 82.5 mM NaCl, 2 mM KCl, 1 mM MgCl2, and […] HEPES, pH 7.4 (OR2 solution). The next day the collagenase containing solution was discarded and the oocytes were washed multiple times with OR2 solution. The oocytes were maintained in OR2 solution supplemented with 1.8 mM CaCl2, 100 IU/ml penicillin, and 100 μg/ml streptomycin at 16°C. cRNA was transcribed from the linearized human TRPM3 (hTRPM3) cDNA clone ([Grimm et al., 2003]), or its mutants in the pGEMSH vector using the mMessage mMachine kit (Thermo Fisher Scientific). cRNA (40 ng) was microinjected into individual oocytes, using a nanoliter-injector system (Warner Instruments). For combined injection of wild-type and mutant TRPM3 for Figures 4E–G, […] total cRNA was injected in a 1:1 ratio. […]"}, "[2]": {"target": "T2, human M2 muscarinic receptors co-expressed with hTRPM3_1325 V990M (Homo sapiens, UniProt P08172)", "T2 construct": "expressed in transfected cells; host or cells: Xenopus laevis oocytes (cRNA injection)", "T2 sequence (P08172 1-466)": "T1 sequence (P08172 1-466)", "test": "M2 muscarinic receptor inhibition of TRPM3 currents, oocytes, V990M mutant", "details": "5 μM ACh, 100 mV", "protocol": "as §1"}, "hTRPM3α2 V992M": {"target": "T3, hTRPM3α2 V992M (Homo sapiens, UniProt Q9HCF6, V1015M)", "T3 construct": "host or cells: HEK293", "T3 sequence (Q9HCF6 1-1709 isoform Q9HCF6-5 V992M)": "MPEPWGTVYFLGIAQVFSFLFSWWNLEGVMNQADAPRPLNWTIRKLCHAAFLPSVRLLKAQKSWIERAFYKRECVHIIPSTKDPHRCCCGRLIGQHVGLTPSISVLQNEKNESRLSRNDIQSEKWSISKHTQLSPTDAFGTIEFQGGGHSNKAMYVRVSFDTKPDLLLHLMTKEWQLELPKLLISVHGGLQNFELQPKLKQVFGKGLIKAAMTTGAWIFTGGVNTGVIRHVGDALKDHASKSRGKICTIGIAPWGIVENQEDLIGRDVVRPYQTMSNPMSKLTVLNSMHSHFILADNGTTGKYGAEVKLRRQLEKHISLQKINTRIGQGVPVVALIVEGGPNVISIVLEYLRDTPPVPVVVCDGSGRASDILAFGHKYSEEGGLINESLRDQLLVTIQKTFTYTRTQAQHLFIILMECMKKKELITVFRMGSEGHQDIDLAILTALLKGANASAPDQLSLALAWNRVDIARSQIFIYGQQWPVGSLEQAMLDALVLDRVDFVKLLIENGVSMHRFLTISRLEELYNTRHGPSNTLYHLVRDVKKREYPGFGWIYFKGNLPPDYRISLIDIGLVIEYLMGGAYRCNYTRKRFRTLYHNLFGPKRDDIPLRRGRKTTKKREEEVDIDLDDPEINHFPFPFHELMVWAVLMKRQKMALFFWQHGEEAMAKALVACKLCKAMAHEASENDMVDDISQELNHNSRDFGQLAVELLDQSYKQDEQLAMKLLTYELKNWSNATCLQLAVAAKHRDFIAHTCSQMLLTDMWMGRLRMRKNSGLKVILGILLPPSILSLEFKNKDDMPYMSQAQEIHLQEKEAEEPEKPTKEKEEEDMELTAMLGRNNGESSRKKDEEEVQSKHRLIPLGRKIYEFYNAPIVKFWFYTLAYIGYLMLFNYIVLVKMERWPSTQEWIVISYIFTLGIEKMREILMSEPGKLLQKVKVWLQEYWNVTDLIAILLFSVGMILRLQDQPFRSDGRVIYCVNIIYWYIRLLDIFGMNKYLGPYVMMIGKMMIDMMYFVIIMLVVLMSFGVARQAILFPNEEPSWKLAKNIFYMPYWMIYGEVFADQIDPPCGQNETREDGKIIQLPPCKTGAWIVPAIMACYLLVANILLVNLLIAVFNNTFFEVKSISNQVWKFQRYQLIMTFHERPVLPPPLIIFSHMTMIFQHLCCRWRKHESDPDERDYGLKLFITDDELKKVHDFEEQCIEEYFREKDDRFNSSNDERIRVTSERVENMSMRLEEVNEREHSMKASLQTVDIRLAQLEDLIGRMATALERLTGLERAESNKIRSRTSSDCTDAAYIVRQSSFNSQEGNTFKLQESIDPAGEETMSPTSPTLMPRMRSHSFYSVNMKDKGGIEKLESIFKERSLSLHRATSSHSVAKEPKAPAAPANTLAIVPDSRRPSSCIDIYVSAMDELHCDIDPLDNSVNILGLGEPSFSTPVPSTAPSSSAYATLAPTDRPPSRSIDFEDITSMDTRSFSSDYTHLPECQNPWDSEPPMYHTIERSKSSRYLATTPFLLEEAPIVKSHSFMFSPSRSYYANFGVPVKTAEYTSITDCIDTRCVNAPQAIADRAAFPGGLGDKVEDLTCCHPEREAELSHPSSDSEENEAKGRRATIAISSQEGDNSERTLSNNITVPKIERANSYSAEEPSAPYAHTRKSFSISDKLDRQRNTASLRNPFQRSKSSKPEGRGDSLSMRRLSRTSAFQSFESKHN", "test": "Intracellular Ca2+ assay (GCaMP6f) in 96-well plates, HEK293 cells, V992M mutant", "details": "very high basal Ca2+ levels", "protocol": "(§2) Intracellular Ca^2+ measurements were performed using a Flexstation-3 96‐well plate reader with rapid well injection (Molecular Devices) as described earlier ([Hughes et al., 2019]) with some modifications. Briefly Human Embryonic Kidney 293 (HEK293) cells were purchased from American Type Culture Collection (ATCC), Manassas, VA, (catalogue number CRL-1573), RRID:CVCL_0045; cell identity was verified by STR analysis by ATCC. HEK293 cells were cultured in MEM supplemented with 10% FBS and 100 IU/ml penicillin plus 100 µg/ml streptomycin in 5% CO2 at 37°C. Additional cell authentication was not performed, but passage number of the cells was monitored, and cells were used up to passage number 25–30 from purchase, when a new batch of cells was thawed with low passage number; cells were tested for the lack of mycoplasma infection. HEK293 cells were transfected with hTRPM3α2-GFP, or its mutants (200 ng) and GCaMP6 (1 μg) using the Effectene reagent (Qiagen). […] GCaMP6 signal was measured at excitation wavelengths 485 nm and fluorescence emission was detected at 525 nm. Sampling interval was 0.86 s and four parallel reads were performed for each condition. […] For measurements at 37°C the MEM medium used to culture the cells was replaced with the measurement solution preheated to 37°C, and the plate was placed in the plate reader warmed to 37°C using its built-in temperature controller."}, "hTRPM3α2 P1092Q": {"target": "T4, hTRPM3α2 P1092Q (Homo sapiens, UniProt Q9HCF6, P1115Q)", "T4 construct": "host or cells: HEK293", "T4 sequence (Q9HCF6 1-1709 isoform Q9HCF6-5 P1092Q)": "as the sequence (Q9HCF6 1-1709 isoform Q9HCF6-5 V992M) above, with M992V, P1092Q counted along it", "test": "Intracellular Ca2+ assay (GCaMP6f) in 96-well plates, HEK293 cells, P1092Q mutant", "details": "very high basal Ca2+ levels", "protocol": "as §2"}}, "data": [{"compound": "CC(=O)OCC[N+](C)(C)C", "note": "[ACh, acetylcholine]", "values": [{"measurement": "inhibition at 5 µM", "setting": "[1]", "result": "~50", "unit": "%"}, {"measurement": "Inhibition of TRPM3 currents induced by 50 μM PregS", "setting": "[2]", "result": "essentially not inhibited"}]}, {"compound": "pregnenolone sulfate [PregS]", "values": [{"measurement": "Ca2+ response to agonist at 37°C", "setting": "hTRPM3α2 V992M", "result": "not further increased"}, {"measurement": "Ca2+ response to agonist at 37°C", "setting": "hTRPM3α2 P1092Q", "result": "not further increased"}]}]}
